Molecular target: T1, Guanyl-specific ribonuclease T1 (Aspergillus oryzae (strain ATCC 42149 / RIB 40), UniProt P00651)
T1 sequence (P00651 whole entry): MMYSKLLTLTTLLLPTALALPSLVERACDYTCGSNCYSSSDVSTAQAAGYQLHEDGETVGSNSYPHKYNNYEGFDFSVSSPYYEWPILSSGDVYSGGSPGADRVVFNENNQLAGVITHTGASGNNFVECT
Assay: RNase T1 inhibitors, dose response, counter-screen for TPT1 inhibitor project, biochemical, fluorescence polarization, 1536-well (AID 2167)

IC50: > 55.7 µM
SMILES: Cc1ccc2nc(N=NCc3ccc([N+](=O)[O-])o3)nc(-c3ccccc3)c2c1
